In PMC8949503, “Radiosynthesis and Preclinical Evaluation of Bispecific PSMA/FAP Heterodimers for Tumor Imaging” (Pharmaceuticals, 2022):

Columns and labels:
[1] = system: A549-FAP tumor xenografts; experiment: dynamic micro-PET imaging in A549-FAP tumor xenografts; type: in vivo; settings: A549-FAP tumor-bearing nude mice, up to 2 h p.i.
Method: (§1) For the biodistribution and micro-PET imaging studies, male BALB/c nude mice (6–8 weeks) were subcutaneously inoculated with 1 × 10^7 22Rv1 or 5 × 10^6 A549-FAP cells in the right shoulder. Mice were imaged or used in the biodistribution studies when the tumor reached 5–10 mm in diameter.
Mice bearing xenografted 22Rv1 or A549FAP tumors (n = 3 per group) were anesthetized and placed in the prone position in a micro-PET scanner (Siemens, Erlangen, Germany). Dynamic PET/CT images were acquired 2 h post-injection (p.i.) with the radiotracer (5.55–11.1 MBq). The blocking experiments were performed by co-injecting 3 mg/kg of 2-PMPA for mice bearing 22Rv1 tumors or 3 mg/kg of DOTA-FAPI-04 for mice bearing A549-FAP tumors. The images were reconstructed using a three-dimensional ordered-subset expectation maximum algorithm and converted to %ID/g. Attenuation correction was performed using the unenhanced low-dose CT data. For data analysis, the regions of interest (ROIs) were manually drawn over the tumors and major organs on decay-corrected whole-body coronal images obtained using Inevon Research Workplace 4.1 software.

[2] = system: 22Rv1 tumor-bearing nude mice; experiment: tissue biodistribution and blocking in 22Rv1 tumor-bearing nude mice; type: in vivo; settings: 1 h p.i.; for 22Rv1 tumor* uptake, Blocked / Kidney* uptake, Blocked: co-injected 2-PMPA 3 mg/kg
Method: as §1
(§2) Mice bearing 22Rv1 or A549-FAP (n = 4 in each group) tumors were euthanized 60 min after intravenous administration of each tracer (740–1480 KBq/mouse). In the blocking group, the same experiment was conducted by co-injecting 50 μg of 2-PMPA for mice bearing 22Rv1 tumors or 50 μg of DOTA-FAPI-04 for mice bearing A549-FAP tumors. The organs of interest and tumors were quickly dissected and weighed. Radioactivity was assessed using a γ-counter and calculated as the percentage injected dose per gram (%ID/g).

[3] = system: A549-FAP tumor-bearing nude mice; experiment: tissue biodistribution and blocking in A549-FAP tumor-bearing nude mice; type: in vivo; settings: 1 h p.i.; for A549-FAP tumor uptake, Blocked / Blood uptake, Blocked / Bone uptake, Blocked / Brain uptake, Blocked / Gall bladder uptake, Blocked / Heart uptake, Blocked / Kidney uptake, Blocked / Liver uptake, Blocked / Lung uptake, Blocked / Muscle uptake, Blocked / Small intestine uptake, Blocked / Spleen uptake, Blocked / Stomach uptake, Blocked: co-injected DOTA-FAPI-04 3 mg/kg
Method: as §1, §2

[4] = system: A549-FAP cells; experiment: cell uptake and blocking study in A549-FAP cells; type: cell-based; settings: for cell uptake, blocked: +DOTA-FAPI-04 (2.3 μM)
Method: PSMA-positive 22Rv1 cells (purchased from Institute of Biochemistry and Cell Biology, Shanghai, China) and stably FAP-transfected A549-FAP cells (acquired using lentiviral infection) were used for the cell-based experiments. The 22Rv1 cells were cultivated in RPMI-1640 medium (Gibco) at 37 °C/5% carbon dioxide, while the A549-FAP cells were cultivated in DMEM medium. Both media were supplemented with 10% heat-inactivated fetal bovine serum (FBS) and 1% penicillin/streptomycin (Gibco). Puromycin (1 µg/mL) was also added to the media to maintain FAP expression.
Cells were seeded in 12-well plates 2 days in advance to achieve a final confluence of approximately 80–90% (4–5 × 10^5 cells/well). The medium was displaced by 1 mL fresh medium without FBS. The method of cell studies was similar to a method reported previously. For the competitive binding experiments, cells were incubated with the known radiotracers ([^18F]FAPI-42 for the FAP receptor and [^18F]AlF-PSMA-BCH for PSMA) in the presence of 7 different concentrations (10^−5–10^−11 M) of the corresponding unlabeled heterodimers or corresponding monomer and incubated for 60 min at 37 °C. In all experiments, the cells were washed twice with PBS, lysed with 1 M NaOH, and counted using a γ-counter. IC50 values were calculated by fitting the data using a nonlinear regression algorithm (implemented in SPSS). For the radioligand binding studies, the cells were incubated for 5, 15, 30, 60, or 120 min at 37 °C after the addition of the heterodimer or corresponding monomeric radiotracer radiotracers. The blocking experiments were determined by adding the corresponding competitors (4.4 μM 2-PMPA for 22Rv1 cells and 2.3 μM DOTA-FAPI-04 for A549-FAP cells). Radioactivity was measured using a γ-counter, normalized to 1 million cells (1 mio cells), and calculated as the percentage of the applied dose (%ID/1 mio cells). For the internalization experiments, the cells were incubated with the radiolabeled compound for 60 min, washed twice with 1 mL PBS, and then incubated for 10 min with 1 mL glycine HCl (1 M, pH 2.2) to detach the extracellular bound tracer. Next, the cells were washed with PBS (2.0 mL) and lysed with 1 M NaOH (1.5 mL). The radioactivity of the acid wash solution (extracellularly bound tracer) and cell lysate (internalized tracer) was assessed separately using a γ-counter. For the efflux experiments, the radioactive medium was removed after 60 min incubation and replaced with non-radioactive medium. At predetermined time points of 15, 30, 60, and 120 min, the cells were washed with 1.0 mL PBS three times and then lysed. The radioactivity of the remaining cells was assessed using a γ-counter. Each experiment was conducted three times with three or four replicates per independent experiment.

[5] = n-octanol/PBS partition coefficient (logD); type: physicochemical; settings: PBS pH 7.4, ambient temperature
Method: An aliquot (74 kBq) of [^18F]AlF-PSMA-FAPI-01 or [^18F]AlF-PSMA-FAPI-02 was added to a centrifuge tube containing a mixture of phosphate-buffered solution (PBS, pH 7.4, 5.0 mL) and n-octanol (5.0 mL). The mixture was vigorously vortexed at ambient temperature for 5 min and then centrifuged (10,000 rpm, 5 min). Three samples (each 100 µL) from each phase underwent radioactivity measurement using a γ-counter (CAPRAC-R, Capintec, Inc., Ramsey, NJ, USA).

[6] = system: A549-FAP cells; experiment: efflux in A549-FAP cells; type: cell-based; settings: 2 h incubation
Method: (§3) Cells were seeded in 12-well plates 2 days in advance to achieve a final confluence of approximately 80–90% (4–5 × 10^5 cells/well). The medium was displaced by 1 mL fresh medium without FBS. The method of cell studies was similar to a method reported previously. For the competitive binding experiments, cells were incubated with the known radiotracers ([^18F]FAPI-42 for the FAP receptor and [^18F]AlF-PSMA-BCH for PSMA) in the presence of 7 different concentrations (10^−5–10^−11 M) of the corresponding unlabeled heterodimers or corresponding monomer and incubated for 60 min at 37 °C. In all experiments, the cells were washed twice with PBS, lysed with 1 M NaOH, and counted using a γ-counter. IC50 values were calculated by fitting the data using a nonlinear regression algorithm (implemented in SPSS). […] The blocking experiments were determined by adding the corresponding competitors (4.4 μM 2-PMPA for 22Rv1 cells and 2.3 μM DOTA-FAPI-04 for A549-FAP cells). Radioactivity was measured using a γ-counter, normalized to 1 million cells (1 mio cells), and calculated as the percentage of the applied dose (%ID/1 mio cells). […] The radioactivity of the acid wash solution (extracellularly bound tracer) and cell lysate (internalized tracer) was assessed separately using a γ-counter. […] The radioactivity of the remaining cells was assessed using a γ-counter. […]

[7] = system: 22Rv1 cells; experiment: efflux in 22Rv1 cells; type: cell-based; settings: 2 h incubation
Method: as §3

Compound: N#C[C@@H]1CC(F)(F)CN1C(=O)CNC(=O)c1ccnc2ccc(OCCCC(=O)NCCCC[C@H](NC(=O)CN3CCN4CCN(CC3)CC(=O)[O][Al]([18F])[O]C(=O)C4)C(=O)NCC3CCC(C(=O)N[C@H](Cc4ccc5ccccc5c4)C(=O)NCCCC[C@H](NC(=O)N[C@@H](CCC(=O)O)C(=O)O)C(=O)O)CC3)cc12 (some centres unmarked) [[^18F]AlF-PSMA-FAPI-01]
- time–activity curves (micro-PET) [1]: rapid uptake and excellent retention in tumors, as well as rapid clearance from non-target organs via the kidneys
- 22Rv1 tumor* uptake [2]: 12.37 ± 0.40 %ID/g
- Kidney* uptake [2]: 23.4 ± 9.22 %ID/g
- 22Rv1 tumor* uptake, Blocked [2]: 5.03 ± 0.75 %ID/g
- Kidney* uptake, Blocked [2]: 2.85 ± 0.38 %ID/g
- A549-FAP tumor uptake [3]: 6.40 ± 0.32 %ID/g
- Blood uptake [3]: 2.36 ± 0.60 %ID/g
- Bone uptake [3]: 4.09 ± 0.76 %ID/g
- Brain uptake [3]: 0.16 ± 0.03 %ID/g
- Gall bladder uptake [3]: 2.02 ± 0.40 %ID/g
- Heart uptake [3]: 1.56 ± 0.14 %ID/g
- Kidney uptake [3]: 23.88 ± 3.01 %ID/g
- Liver uptake [3]: 1.38 ± 0.11 %ID/g
- Lung uptake [3]: 1.82 ± 0.18 %ID/g
- Muscle uptake [3]: 2.18 ± 0.48 %ID/g
- Small intestine uptake [3]: 1.23 ± 0.21 %ID/g
- Spleen uptake [3]: 0.99 ± 0.17 %ID/g
- Stomach uptake [3]: 1.03 ± 0.13 %ID/g
- A549-FAP tumor uptake, Blocked [3]: 1.38 ± 0.77 %ID/g
- Blood uptake, Blocked [3]: 0.88 ± 0.62 %ID/g
- Bone uptake, Blocked [3]: 1.53 ± 0.21 %ID/g
- Brain uptake, Blocked [3]: 0.09 ± 0.03 %ID/g
- Gall bladder uptake, Blocked [3]: 1.67 ± 0.32 %ID/g
- Heart uptake, Blocked [3]: 0.41 ± 0.02 %ID/g
- Kidney uptake, Blocked [3]: 28.65 ± 6.05 %ID/g
- Liver uptake, Blocked [3]: 0.79 ± 0.37 %ID/g
- Lung uptake, Blocked [3]: 1.66 ± 0.33 %ID/g
- Muscle uptake, Blocked [3]: 0.32 ± 0.05 %ID/g
- Small intestine uptake, Blocked [3]: 1.04 ± 0.53 %ID/g
- Spleen uptake, Blocked [3]: 0.67 ± 0.20 %ID/g
- Stomach uptake, Blocked [3]: 0.91 ± 0.43 %ID/g
- cell uptake ([4]; 5 min): 8.15 ± 0.31 % ID/1 million cells
- cell uptake, blocked ([4]; 5 min): 0.67 ± 0.07 % ID/1 million cells
- cell uptake ([4]; 15 min): 16.57 ± 0.98 % ID/1 million cells
- cell uptake, blocked ([4]; 15 min): 0.71 ± 0.09 % ID/1 million cells
- cell uptake ([4]; 30 min): 23.73 ± 0.33 % ID/1 million cells
- cell uptake, blocked ([4]; 30 min): 0.77 ± 0.01 % ID/1 million cells
- cell uptake ([4]; 60 min): 30.36 ± 3.53 % ID/1 million cells
- cell uptake, blocked ([4]; 60 min): 0.83 ± 0.09 % ID/1 million cells
- cell uptake ([4]; 120 min): 28.23 ± 2.97 % ID/1 million cells
- cell uptake, blocked ([4]; 120 min): 1.16 ± 0.06 % ID/1 million cells
- n-octanol/PBS distribution coefficient (logD) [5]: −2.74 ± 0.02

Compound: N#C[C@@H]1CC(F)(F)CN1C(=O)CNC(=O)c1ccnc2ccc(OCCCN3CCN(C(=O)CCC(=O)NCCCC[C@H](NC(=O)CN4CCN5CCN(CC4)CC(=O)[O][Al]([18F])[O]C(=O)C5)C(=O)NC[C@H]4CC[C@H](C(=O)N[C@H](Cc5ccc6ccccc6c5)C(=O)NCCCC[C@H](NC(=O)N[C@@H](CCC(=O)O)C(=O)O)C(=O)O)CC4)CC3)cc12 [[^18F]AlF-PSMA-FAPI-02]
- time–activity curves (micro-PET) [1]: rapid uptake and excellent retention in tumors, as well as rapid clearance from non-target organs via the kidneys
- 22Rv1 tumor* uptake [2]: 12.85 ± 2.43 %ID/g
- Kidney* uptake [2]: 27.0 ± 11.9 %ID/g
- 22Rv1 tumor* uptake, Blocked [2]: 6.85 ± 1.53 %ID/g
- Kidney* uptake, Blocked [2]: 2.94 ± 0.35 %ID/g
- cell efflux [6]: lower cellular efflux
- A549-FAP tumor uptake [3]: 6.47 ± 0.76 %ID/g
- Blood uptake [3]: 1.98 ± 0.46 %ID/g
- Bone uptake [3]: 5.53 ± 0.18 %ID/g
- Brain uptake [3]: 0.11 ± 0.03 %ID/g
- Gall bladder uptake [3]: 2.23 ± 1.07 %ID/g
- Heart uptake [3]: 0.84 ± 0.17 %ID/g
- Kidney uptake [3]: 23.10 ± 7.91 %ID/g
- Liver uptake [3]: 0.81 ± 0.22 %ID/g
- Lung uptake [3]: 1.37 ± 0.22 %ID/g
- Muscle uptake [3]: 1.35 ± 0.36 %ID/g
- Small intestine uptake [3]: 0.84 ± 0.33 %ID/g
- Spleen uptake [3]: 0.51 ± 0.16 %ID/g
- Stomach uptake [3]: 0.83 ± 0.42 %ID/g
- A549-FAP tumor uptake, Blocked [3]: 1.11 ± 0.88 %ID/g
- Blood uptake, Blocked [3]: 0.57 ± 0.19 %ID/g
- Bone uptake, Blocked [3]: 3.83 ± 0.02 %ID/g
- Brain uptake, Blocked [3]: 0.07 ± 0.03 %ID/g
- Gall bladder uptake, Blocked [3]: 1.39 ± 0.20 %ID/g
- Heart uptake, Blocked [3]: 0.28 ± 0.07 %ID/g
- Kidney uptake, Blocked [3]: 26.70 ± 10.80 %ID/g
- Liver uptake, Blocked [3]: 0.41 ± 0.12 %ID/g
- Lung uptake, Blocked [3]: 0.90 ± 0.24 %ID/g
- Muscle uptake, Blocked [3]: 0.85 ± 0.39 %ID/g
- Small intestine uptake, Blocked [3]: 0.55 ± 0.29 %ID/g
- Spleen uptake, Blocked [3]: 0.30 ± 0.03 %ID/g
- Stomach uptake, Blocked [3]: 0.37 ± 0.06 %ID/g
- cell efflux [7]: lower cellular efflux
- cell uptake ([4]; 5 min): 11.66 ± 0.39 % ID/1 million cells
- cell uptake, blocked ([4]; 5 min): 1.28 ± 0.08 % ID/1 million cells
- cell uptake ([4]; 15 min): 17.03 ± 0.85 % ID/1 million cells
- cell uptake, blocked ([4]; 15 min): 1.29 ± 0.38 % ID/1 million cells
- cell uptake ([4]; 30 min): 23.26 ± 1.59 % ID/1 million cells
- cell uptake, blocked ([4]; 30 min): 1.31 ± 0.16 % ID/1 million cells
- cell uptake ([4]; 60 min): 27.02 ± 2.21 % ID/1 million cells
- cell uptake, blocked ([4]; 60 min): 1.59 ± 0.65 % ID/1 million cells
- cell uptake ([4]; 120 min): 32.55 ± 1.42 % ID/1 million cells
- cell uptake, blocked ([4]; 120 min): 1.71 ± 0.23 % ID/1 million cells
- n-octanol/PBS distribution coefficient (logD) [5]: −2.04 ± 0.04
